Experimental data taken from patent publication US8609680B2, “2,3-dihydro-1H-inden-1-yl-2,7-diazaspiro[3.5] nonane derivatives” (Pfizer Inc., priority 2010, dated 2013).
Like-named read-outs stand apart in the source and are kept apart here.

Legend:
[1] = target: T1, human GHSR1a (Homo sapiens, UniProt Q92847); assay: Human Ghrelin Functional Assay (DELFIA GTP-binding assay); format: biochemical; conditions: GTP-Europium exchange, human GHSR1a membranes, with and without ghrelin at EC80
T1 construct: expressed in transfected cells; host or cells: HEK293 Tetracycline-Inducible cell line, used as membranes
Protocol: Human Ghrelin Functional Assay
To measure the ability of test compounds in the present invention to modulate the activity of human GHSR1a (agonize, antagonize, partially agonize, inversely agonize), a DELFIA GTP-binding assay (Perkin Elmer, AD0260 and AD0261) is performed. The assay monitors the ligand-dependent exchange of GDP for GTP. GPCR activation results in an increase in fluorescence as receptor-bound GDP is replaced by Europium-labeled GTP.
Ghrelin functional assays are performed in a final volume of 39.5 μl containing 720 ng human GHSR1a (HEK293 Tetracycline-Inducible cell line expressing the human growth secretagogue receptor la, prepared as membranes), 9 nM GTP-Europium and varying concentrations of test compound or vehicle. To test for receptor antagonism, membranes are incubated in the presence of agonist ghrelin (Anaspec, 24158) at the EC80 concentration, plus test compound or vehicle.
Briefly, test compounds are prepared at room temperature in 384-well plates (Matrix, 4340). […] Samples are then transferred as 6 μl to 384-well filter plates (Pall, 5071) containing 30 μl of 24 μg/ml hGHSR1a membrane and 0.35 mg/ml saponin (Perkin Elmer, AD0261) in basal buffer.
The mixture is incubated 24 minutes at room temperature with gentle shaking, followed by the addition of 3.5 μl of 100 nM GTP-Europium in 50 mM HEPES, pH 7.4. Samples are shielded from light and incubated for 90 minutes further at room temperature with gentle shaking. The reactions are suctioned dry with vacuum, washed three times with 75 μl ice cold 1× GTP Wash Solution (Perkin Elmer, AD0261), and immediately read on the Envision 2101 Multilabel Reader (Perkin Elmer) using excitation filter 320 nm and emission filter 615 nm.

[2] = target: T1, human GHSR1a; assay: Human Ghrelin SPA Binding Assay
Text: The SPA format was utilized for high throughput screening of test compounds and filter binding served for more comprehensive binding characterization.
Human Ghrelin SPA Binding Assay

T1 sequence (Q92847 whole entry): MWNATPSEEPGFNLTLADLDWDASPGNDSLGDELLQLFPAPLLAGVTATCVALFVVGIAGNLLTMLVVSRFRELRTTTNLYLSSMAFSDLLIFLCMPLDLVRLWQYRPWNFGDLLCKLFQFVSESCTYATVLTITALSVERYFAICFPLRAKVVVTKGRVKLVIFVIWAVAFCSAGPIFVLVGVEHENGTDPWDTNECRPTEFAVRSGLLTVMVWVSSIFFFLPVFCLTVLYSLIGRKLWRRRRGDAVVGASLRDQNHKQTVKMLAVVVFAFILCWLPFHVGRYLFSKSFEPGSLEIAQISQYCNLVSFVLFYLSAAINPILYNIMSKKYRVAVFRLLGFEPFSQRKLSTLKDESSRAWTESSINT

SMILES | functional comment [1] | IC50 [2] [nM] | Ki ([2]; SPA format, [125I] ghrelin displacement, human GHSR1a membranes, Ki=IC50/(1+[ligand]/Kd)) [nM] | Ki [2] [nM]
COc1ccc(CC(=O)N2CCC3(CC2)CN([C@@H]2CCc4cc(-c5ncccn5)ccc42)C3)nc1 [Example 3G] | inverse agonist | 21.2 | – | –
CCc1cnc(-c2ccc3c(c2)CC[C@H]3N2CC3(CCN(C(=O)Cc4ccc(OC)cn4)CC3)C2)nc1 [Example 3A, 2-[(1R)-5-(5-Ethylpyrimidin-2-yl)-2,3-dihydro-1H-inden-1-yl]-7-[(5-methoxypyridin-2-yl)acetyl]-2,7-diazaspiro[3.5]nonane] | inverse agonist | 9.46 | 9.03 | –
Cc1cnc(-c2ccc3c(c2)CC[C@H]3N2CC3(CCN(C(=O)Cc4cn5nc(C)sc5n4)CC3)C2)nc1 [Example 3AN] | inverse agonist | 16.6 | – | 14.9
Cc1ccn2cc(CC(=O)N3CCC4(CC3)CN([C@@H]3CCc5cc(-c6cc(C(N)=O)ncn6)ccc53)C4)nc2c1 [Example 10G] | inverse agonist | 60.1 | – | 53.8
